Results published in US10966426B2, “Herbicidal compositions comprising phenylpyrimidines” (BASF SE, priority 2016, dated 2021).
Values joined by “and” are separate entries in the source; they are usually repeats but may differ in a detail not shown here. Equal entries are not always repeated.

Legend:
Format in all cases: in vivo
[1] = system: Alopecurus myosuroides; assay: greenhouse pre-emergence treatment, ALOMY
Procedure, shortened: (§1)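 Pre-emergence spray of compounds, alone or as combinations formulated as 10% emulsion concentrate in water, directly after sowing in loamy sand (~3.0% humus); pots hooded until rooting, kept at 10-25° C or 20-35° C per species for 2 to 4 weeks. Damage scored 0-100 (100 = no emergence/complete destruction); Colby expected value E=X+Y−(X·Y/100).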

[2] = system: Papaver rhoeas; assay: greenhouse pre-emergence treatment, PAPRH; conditions: 20 DAT; for % activity, solo application: Table X6
From the text: (§2) The culture containers used were plastic pots containing loamy sand with approximately 3.0% of humus as substrate. The seeds of the test plants were sown separately for each species.
(§3) For the pre-emergence treatment, the active compounds, suspended or emulsified in water, were applied directly after sowing by means of finely distributing nozzles. The containers were irrigated gently to promote germination and growth and subsequently covered with transparent plastic hoods until the plants had rooted. This cover caused uniform germination of the test plants unless this was adversely affected by the active compounds.
(§4) Depending on the species, the plants were kept at 10-25° C. and 20-35° C., respectively.
(§5) The test period extended over 2 to 4 weeks. During this time, the plants were tended and their response to the individual treatments was evaluated.
(§6) Evaluation was carried out using a scale from 0 to 100. 100 means no emergence of the plants, or complete destruction of at least the above-ground parts, and 0 means no damage or normal course of growth. A good herbicidal activity is given at values of at least 70, and very good herbicidal activity is given at values of at least 85.
(§7) The respective stated components A and B, and if appropriate, C were formulated as a 10% by weight strength emulsion concentrate and, with addition of the amount of solvent system, introduced into the spray liquor used for applying the active compound. In the examples, the solvent used was water.
(§8) In the examples below, using the method of S. R. Colby (1967) “Calculating synergistic and antagonistic responses of herbicide combinations”, Weeds 15, p. 22ff., the value E, which is expected if the activity of the individual active compounds is only additive, was calculated. E=X+Y−(X·Y/100) where X=effect in percent using herbicide A at an application rate a; • Y=effect in percent using herbicide B at application rate b; • E=expected effect (in %) of herbicide A+herbicide B at application rates a+b.

[3] = system: Helianthus annuus; assay: greenhouse pre-emergence treatment, HELAN; conditions: HELAN
Procedure, shortened: as §1

[4] = system: Polygonum convolvulus; assay: greenhouse pre-emergence treatment, POLCO; conditions: POLCO; for % activity, solo application: Table X1
Procedure, shortened: as §1

[5] = system: Echinocloa crus-galli; assay: greenhouse pre-emergence treatment, ECHCG; conditions: 20 DAT
From the text: as §2, §3, §4, §5, §6, §7, §8

[6] = system: Bromus sterilis; assay: greenhouse pre-emergence treatment, BROST; conditions: BROST
Procedure, shortened: as §1

[7] = system: Apera spica-venti; assay: greenhouse pre-emergence treatment, APESV; conditions: solo, 20 DAT
Procedure, shortened: as §1

[8] = system: Avena fatua; assay: greenhouse post-emergence treatment, AVEFA
Procedure, shortened: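 Scoring used a 0 to 100 scale, with 100 denoting no emergence or full destruction of at least the above-ground parts, recorded within a 2 to 4 week test period. Test plants grew in loamy sand containing about 3.0% humus at 10-25° C. or 20-35° C., after direct sowing or transplanting, and received water-based treatments post-emergence.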

[9] = Table X13, 20 DAT, solo Ex. 5 31.25 gai/ha
[10] = 20 DAT, solo Ex. 5 31.25 gai/ha

O=C(O)c1nc(C2CC2)ncc1-c1ccccc1Cl [Ex. 5]
80%: % activity ([3]; solo, 250 gai/ha, 21 DAT) | % activity, solo application ([4]; 125 gai/ha, 20 DAT) | % activity ([4]; Table X10, 20 DAT, solo Ex. 5 125 gai/ha) | % activity, solo application ([6]; 125 gai/ha, 20 DAT, Table X1) | % activity ([7]; 125 gai/ha)
75% and 70%: % activity ([8]; AVEFA, solo Ex. 5 250 gai/ha, 20 DAT)
95%: % activity ([5]; solo, 31.25 gai/ha) | % activity ([5]; solo, 125 gai/ha)
65%: % activity ([4]; Ex. 5 solo, 62.5 gai/ha, 20 DAT) | % activity, solo application ([6]; 62.5 gai/ha, 20 DAT, Table X1) | % activity, solo application ([6]; 125 gai/ha, 20 DAT, Table X6)
75%: % activity ([4]; Table X13, 20 DAT, solo Ex. 5 62.5 gai/ha) | % activity ([6]; solo, 125 gai/ha, 21 DAT) | % activity ([7]; 31.25 gai/ha) | % activity, solo application ([8]; 125 gai/ha, 20 DAT, AVEFA, Table X4) | % activity, solo application ([8]; 250 gai/ha, 20 DAT, AVEFA, Table X5) | % activity ([8]; AVEFA, solo Ex. 5 62.5 gai/ha, 20 DAT, 2nd series of rows)
90%: % activity [1, 9] | % activity ([1]; solo Ex. 5 31.25 gai/ha, 20 DAT) | % activity ([1]; solo Ex. 5 62.5 gai/ha, 20 DAT) | % activity ([4]; Table X13, 20 DAT, solo Ex. 5 250 gai/ha)
35%: % activity, solo application ([3]; 62.5 gai/ha, 20 DAT, Table X1) | % activity ([4]; solo, 31.25 gai/ha, 20 DAT)
0%: % activity ([2]; solo Ex. 5 31.25 gai/ha) | % activity, solo application ([3]; 31.25 gai/ha, 20 DAT, Table X6) | % activity [3, 10] | % activity ([3]; 20 DAT, solo Ex. 5 62.5 gai/ha) | % activity ([3]; solo, 31.25 gai/ha, 20 DAT) | % activity ([3]; solo, 62.5 gai/ha, 20 DAT) | % activity ([3]; solo, 125 gai/ha, 20 DAT)
5%: % activity [6, 10]
68%: % activity ([8]; AVEFA, solo Ex. 5 62.5 gai/ha, 20 DAT)
50%: % activity ([3]; solo, 125 gai/ha, 21 DAT)
20%: % activity, solo application ([2]; 31.25 gai/ha)
45%: % activity ([6]; solo, 62.5 gai/ha, 20 DAT)
70%: % activity ([2]; solo, 62.5 gai/ha) | % activity ([4]; solo, 62.5 gai/ha, 21 DAT) | % activity, solo application ([8]; 125 gai/ha, 20 DAT, AVEFA, Table X5) | % activity ([8]; AVEFA, solo Ex. 5 125 gai/ha, 20 DAT)
40%: % activity, solo application ([3]; 125 gai/ha, 20 DAT, Table X2) | % activity, solo application ([3]; 125 gai/ha, 20 DAT, Table X6)
85%: % activity, solo application ([2]; 125 gai/ha) | % activity ([4]; solo, 125 gai/ha, 21 DAT) | % activity ([5]; Ex. 5 solo, 62.5 gai/ha) | % activity ([8]; AVEFA, 20 DAT, solo Ex. 5 125 gai/ha) | % activity ([8]; AVEFA, 20 DAT, solo Ex. 5 250 gai/ha)
60%: % activity ([3]; Ex. 5 solo, 125 gai/ha, 20 DAT) | % activity, solo application ([4]; 62.5 gai/ha, 20 DAT) | % activity ([4]; Table X10, 20 DAT, solo Ex. 5 31.25 gai/ha) | % activity [4, 9] | % activity ([4]; Table X14, 20 DAT, solo Ex. 5 31.25 gai/ha)
